Measured values published in patent US5807541A, “NSAID/fluoride periodontal compositions and methods” (Sepracor, Inc., priority 1996, dated 1998).
Read-outs that look alike come from different tables or passages of the source.

Columns and labels:
[1] = test system: PGE2 secretion in human promyelocytic leukemia cells (HL-60 cells); experiment: PGE2 secretion in human promyelocytic leukemia (HL-60) cells (A23187-induced), fluoride and NSAIDs alone or combined; conditions: for % inhibition of PGE2 / % stimulation of PGE2 (value in parentheses): Table II; for % Inhibition of A23187-induced PGE2 secretion / % stimulation of A23187-induced PGE2 secretion: mean of two determinations;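 on all read-outs here: fluoride given as NaF, each condition run in duplicate, signals corrected for background and referenced to control, IC50 obtained by nonlinear regression Hill fitting of the curve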
[2] = test system: G proteins; conditions: under certain circumstances; cited from earlier work
[3] = test system: dental caries; conditions: professionally applied topical fluoride, dentifrices and mouthwashes; high risk patients; cited from earlier work
[4] = test system: prostaglandin production in endothelial cells; conditions: under certain circumstances; cited from earlier work
[5] = Homo sapiens, HL-60, read-out: % inhibition of PGE2
[6] = Homo sapiens, HL-60, read-out: IC50, inhibition of PGE2 secretion, summary of Tables III and IV
[7] = ketoprofen enantiomer 10^-7 M + F 0.05%
[8] = ketoprofen enantiomer 10^-7 M + F 0.1%
[9] = ketoprofen enantiomer 10^-7 M + F 0.5%
[10] = ketoprofen enantiomer 10^-7 M, F 0%
[11] = ketoprofen enantiomer 10^-8 M + F 0.05%
[12] = ketoprofen enantiomer 10^-8 M + F 0.1%
[13] = ketoprofen enantiomer 10^-8 M + F 0.5%
[14] = ketoprofen enantiomer 10^-8 M, F 0%
[15] = ketoprofen enantiomer 10^-9 M + F 0.05%
[16] = ketoprofen enantiomer 10^-9 M + F 0.1%
[17] = ketoprofen enantiomer 10^-9 M + F 0.5%
[18] = ketoprofen enantiomer 10^-9 M, F 0%
[19] = ketoprofen enantiomer 10^-10 M + F 0.05%, 0.0001 µM
[20] = ketoprofen enantiomer 10^-10 M + F 0.05%
[21] = ketoprofen enantiomer 10^-10 M + F 0.1%
[22] = ketoprofen enantiomer 10^-10 M + F 0.5%
[23] = ketoprofen enantiomer 10^-10 M, F 0%

## CC(C(=O)O)c1cccc(C(=O)c2ccccc2)c1 (racemic) [ketoprofen]
[1]; 10^-10 M ketoprofen alone
  inhibition of PGE2 (in words): undetected
[1]; 10^-10 M ketoprofen at 260 mM fluoride
  PGE2 production (in words): totally inhibited
[1]; [5]
  inhibition at 0.001 µM: 40%
  inhibition at 0.01 µM: 63%
  inhibition at 0.1 µM: 82%
[1]; Homo sapiens, HL-60, read-out: IC50, PGE2 production, racemic ketoprofen + 52 mM fluoride
  IC50: 11.8 nM
[1]; Homo sapiens, HL-60, read-out: IC50, PGE2 production, racemic ketoprofen alone (no F)
  IC50: 2.8 nM
[1]; Homo sapiens, HL-60, read-out: inhibition of PGE2 levels
  inhibition at 0.0001 µM: 26%
[1]; racemic ketoprofen 10^-7 M + fluoride 26 mM
  % inhibition of PGE2: 66%
[1]; racemic ketoprofen 10^-7 M + fluoride 52 mM
  % inhibition of PGE2: 85%
[1]; racemic ketoprofen 10^-7 M + fluoride 260 mM
  % inhibition of PGE2: 98%
[1]; racemic ketoprofen 10^-8 M + fluoride 52 mM
  % inhibition of PGE2: 46%
[1]; racemic ketoprofen 10^-8 M + fluoride 260 mM
  % inhibition of PGE2: 97%
[1]; racemic ketoprofen 10^-9 M + fluoride 26 mM
  % stimulation of PGE2 (value in parentheses): 125%
[1]; racemic ketoprofen 10^-9 M + fluoride 52 mM
  % inhibition of PGE2: 11%
[1]; racemic ketoprofen 10^-9 M + fluoride 260 mM
  % inhibition of PGE2: 101%
[1]; racemic ketoprofen 10^-10 M + fluoride 26 mM
  % stimulation of PGE2 (value in parentheses): 125%
[1]; racemic ketoprofen 10^-10 M + fluoride 260 mM
  % inhibition of PGE2: 102%
[1]; fluoride 0.1% (52 mM) vs ketoprofen alone
  increase of IC50 for ketoprofen by fluoride: approximately 4 fold
[1]; highest concentration of ketoprofen (10^-7)
  stimulation induced by F^- (in words): overcome

## C[C@H](C(=O)O)c1cccc(C(=O)c2ccccc2)c1 [(S)-Ketoprofen]
[1]; [6]
  IC50: ~0.4 nM
[1]; S- vs R-ketoprofen
  relative potency, inhibition of PGE2 secretion (in words): more potent than R-ketoprofen
[1]; [7]
  % Inhibition of A23187-induced PGE2 secretion: 95%
[1]; [8]
  % Inhibition of A23187-induced PGE2 secretion: 98%
[1]; [9]
  % Inhibition of A23187-induced PGE2 secretion: 99%
[1]; [10]
  % Inhibition of A23187-induced PGE2 secretion: 96%
[1]; [11]
  % Inhibition of A23187-induced PGE2 secretion: 82%
[1]; [12]
  % Inhibition of A23187-induced PGE2 secretion: 89%
[1]; [13]
  % Inhibition of A23187-induced PGE2 secretion: 98%
[1]; [14]
  % Inhibition of A23187-induced PGE2 secretion: 89%
[1]; [15]
  % Inhibition of A23187-induced PGE2 secretion: 35%
[1]; [16]
  % Inhibition of A23187-induced PGE2 secretion: 54%
[1]; [17]
  % Inhibition of A23187-induced PGE2 secretion: 100%
[1]; [18]
  % Inhibition of A23187-induced PGE2 secretion: 70%
[1]; [19]
  stimulation factor, A23187-induced PGE2 secretion: 1.22 ×
[1]; [20]
  % stimulation of A23187-induced PGE2 secretion: 27%
[1]; [21]
  % Inhibition of A23187-induced PGE2 secretion: 18%
[1]; [22]
  % Inhibition of A23187-induced PGE2 secretion: 100%
[1]; [23]
  % Inhibition of A23187-induced PGE2 secretion: 10%

## COc1ccc2c(c1)c(CC(=O)O)c(C)n2C(=O)c1ccc(Cl)cc1 [indomethacin]
[1]; Homo sapiens, HL-60, read-out: IC50, A23187-induced PGE2 secretion, in the absence of fluoride
  IC50: 0.92 nM

## C[C@@H](C(=O)O)c1cccc(C(=O)c2ccccc2)c1 [(R)-Ketoprofen]
[1]; [6]
  IC50: ~100 nM
[1]; [7]
  % Inhibition of A23187-induced PGE2 secretion: 47%
[1]; [8]
  % Inhibition of A23187-induced PGE2 secretion: 75%
[1]; [9]
  % Inhibition of A23187-induced PGE2 secretion: 100%
[1]; [10]
  % Inhibition of A23187-induced PGE2 secretion: 81%
[1]; [11]
  % Inhibition of A23187-induced PGE2 secretion: 5%
[1]; [12]
  % Inhibition of A23187-induced PGE2 secretion: 32%
[1]; [13]
  % Inhibition of A23187-induced PGE2 secretion: 99%
[1]; [14]
  % Inhibition of A23187-induced PGE2 secretion: 39%
[1]; ketoprofen enantiomer 10^-9 M + F 0.05%, 0.001 µM
  stimulation factor, A23187-induced PGE2 secretion: 1.14 ×
[1]; [15]
  % stimulation of A23187-induced PGE2 secretion: 14%
[1]; [16]
  % Inhibition of A23187-induced PGE2 secretion: 2%
[1]; [17]
  % Inhibition of A23187-induced PGE2 secretion: 99%
[1]; [18]
  % Inhibition of A23187-induced PGE2 secretion: 6%
[1]; [19]
  stimulation factor, A23187-induced PGE2 secretion: 1.27 ×
[1]; [20]
  % stimulation of A23187-induced PGE2 secretion: 27%
[1]; [21]
  % Inhibition of A23187-induced PGE2 secretion: 23%
[1]; [22]
  % Inhibition of A23187-induced PGE2 secretion: 98%
[1]; [23]
  % Inhibition of A23187-induced PGE2 secretion: 14%

## [F-].[Na+] [fluoride, sodium fluoride]
[2]
  activation of G proteins (in words): activate G proteins
[1]; F 0.0001% (52 μM)
  PGE2 secretion, % Control, 1st Value: 80.1%
  PGE2 secretion, % Control, 2nd value: 87.4%
  PGE2 secretion, % Control, mean: 83.7%
[1]; F 0.001% (520 μM)
  PGE2 secretion, % Control, 1st Value: 94.1%
  PGE2 secretion, % Control, 2nd value: 74.9%
  PGE2 secretion, % Control, mean: 84.5%
[1]; F 0.01% (5.2 mM)
  PGE2 secretion, % Control, 1st Value: 117.7%
  PGE2 secretion, % Control, 2nd value: 99.8%
  PGE2 secretion, % Control, mean: 108.7%
[1]; F 0.02% (10.4 mM)
  PGE2 secretion, % Control, 1st Value: 188.7%
  PGE2 secretion, % Control, 2nd value: 208.8%
  PGE2 secretion, % Control, mean: 198.8%
[1]; F 0.05% (26 mM)
  PGE2 secretion, % Control, 1st Value: 157.9%
  PGE2 secretion, % Control, 2nd value: 177.3%
  PGE2 secretion, % Control, mean: 167.6%
[1]; F 0.05%, ketoprofen 0
  stimulation factor, A23187-induced PGE2 secretion: 1.16 ×
  % stimulation of A23187-induced PGE2 secretion: 16%
[1]; F 0.07% (36 mM)
  PGE2 secretion, % Control, 1st Value: 142.1%
  PGE2 secretion, % Control, 2nd value: 142.1%
  PGE2 secretion, % Control, mean: 142.1%
[1]; F 0.1% (52 mM)
  PGE2 secretion, % Control, 1st Value: 115.1%
  PGE2 secretion, % Control, 2nd value: 112.6%
  PGE2 secretion, % Control, mean: 113.9%
[1]; F 0.1%, ketoprofen 0
  % Inhibition of A23187-induced PGE2 secretion: 26%
[1]; F 0.2% (104 mM)
  PGE2 secretion, % Control, 1st Value: 5.2%
  PGE2 secretion, % Control, 2nd value: 8.9%
  PGE2 secretion, % Control, mean: 7.0%
[1]; F 0.3% (156 mM)
  PGE2 secretion, % Control, 1st Value: 4.9%
  PGE2 secretion, % Control, 2nd value: 3.1%
  PGE2 secretion, % Control, mean: 4.0%
[1]; F 0.5% (260 mM)
  PGE2 secretion, % Control, 1st Value: 0.5%
  PGE2 secretion, % Control, 2nd value: 1.7%
  PGE2 secretion, % Control, mean: 1.1%
[1]; F 0.5%, ketoprofen 0
  % Inhibition of A23187-induced PGE2 secretion: 96%
[1]; concentration range employed for the prevention of dental caries
  production of prostaglandins (in words): stimulates the production of prostaglandins
[1]; fluoride 0.02%
  maximum stimulation of PGE2 secretion: 99%
[1]; fluoride 26 mM
  effect of fluoride on the inhibitory effects of R- and S-ketoprofen (in words): decrease of the inhibitory effects of R- and S-ketoprofen
[1]; fluoride 260 mM
  effect of fluoride in combination with R- and S-ketoprofen (in words): amplifies its inhibitory effects
[1]; fluoride above 0.2%
  effect on PGE2 secretion (in words): completely inhibits PGE2 secretion
[1]; fluoride alone, 26 mM (0.05%)
  stimulation of PGE2 production: 108%
[1]; fluoride alone, 52 mM
  inhibition of PGE2 production: 12%
[1]; fluoride alone, 260 mM
  inhibition of PGE2 production: 92%
[1]; fluoride below about 5 mM (below about 0.01% w/v)
  effect on stimulated PGE2 secretion (in words): no significant effect
[1]; fluoride from 0.0001 to 0.01%
  effect on PGE2 secretion (in words): no effect
[1]; fluoride from 0.02 to 0.07%
  effect on PGE2 secretion (in words): induces stimulation
[1]; fluoride ion above about 50 mM (above about 0.1% w/v)
  effect on PGE2 secretion (in words): inhibitory to PGE2 secretion
[1]; fluoride ion at about 10 mM
  peak production of PGE2, % of control: 200%
[1]; fluoride ion between about 5 and about 50 mM
  production of PGE2 (in words): stimulates the production of prostaglandin E2
[3]
  prevention of dental caries (in words): effective in preventing dental caries among high risk patients
[4]
  prostaglandin production in endothelial cells (in words): induce prostaglandin production
